Laboratory results reported in patent US20260125376A1, “IRREVERSIBLE INACTIVATORS TARGETING ARAF/MEK COMPLEXES” (Dana-Farber Cancer Institute, Inc., priority 2022, published 2026).

Tests used:
ARAF/MEK protein complex = ARAF/MEK protein complex (Homo sapiens, UniProt P10398+Q02750); assay: Mass spectrometry-based assay for covalent labeling of ARAF; type: binding; details: ARAF/MEK protein complex incubated at room temperature for 2 hours with inhibitor at concentration ratio 1:10; LC-MS of denatured protein
Sequence of ARAF/MEK protein complex (P10398 whole entry): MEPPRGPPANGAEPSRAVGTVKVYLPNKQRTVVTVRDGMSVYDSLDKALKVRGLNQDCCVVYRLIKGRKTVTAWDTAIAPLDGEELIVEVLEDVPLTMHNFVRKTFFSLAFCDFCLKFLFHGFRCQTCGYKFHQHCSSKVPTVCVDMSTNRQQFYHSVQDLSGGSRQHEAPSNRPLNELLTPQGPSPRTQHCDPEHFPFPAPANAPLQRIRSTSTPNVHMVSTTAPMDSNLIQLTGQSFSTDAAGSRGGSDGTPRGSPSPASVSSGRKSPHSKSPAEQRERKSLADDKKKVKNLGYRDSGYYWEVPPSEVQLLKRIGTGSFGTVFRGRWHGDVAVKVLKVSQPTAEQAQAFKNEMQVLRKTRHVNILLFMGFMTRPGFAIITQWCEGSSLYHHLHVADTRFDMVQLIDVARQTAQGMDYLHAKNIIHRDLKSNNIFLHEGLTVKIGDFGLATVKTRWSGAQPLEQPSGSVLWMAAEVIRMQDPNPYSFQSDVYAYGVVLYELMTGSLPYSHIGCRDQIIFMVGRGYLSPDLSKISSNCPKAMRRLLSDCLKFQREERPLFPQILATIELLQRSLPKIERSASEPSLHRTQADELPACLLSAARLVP
Sequence of ARAF/MEK protein complex (Q02750 whole entry): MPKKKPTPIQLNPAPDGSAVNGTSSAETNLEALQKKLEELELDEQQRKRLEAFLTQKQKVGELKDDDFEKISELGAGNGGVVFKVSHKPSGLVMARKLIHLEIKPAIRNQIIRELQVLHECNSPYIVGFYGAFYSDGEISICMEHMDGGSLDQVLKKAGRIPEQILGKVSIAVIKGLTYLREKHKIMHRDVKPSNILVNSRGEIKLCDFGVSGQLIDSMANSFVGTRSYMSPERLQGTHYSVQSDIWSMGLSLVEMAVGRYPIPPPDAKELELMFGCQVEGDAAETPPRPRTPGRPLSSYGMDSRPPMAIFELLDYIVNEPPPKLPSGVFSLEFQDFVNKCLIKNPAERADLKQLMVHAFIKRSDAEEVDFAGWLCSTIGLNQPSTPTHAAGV
Procedure: Covalent labeling of ARAF by compounds of the invention was measured using a mass spectrometry-based assay. The ARAF/MEK protein complex was incubated at room temperature for 2 hours with desired inhibitors at a concentration ratio of 1:10. Following incubation, proteins were denatured in 8 M urea. Formic acid was added to a final 1% and desalted over C4 resin prior to LCMS analysis. Denatured proteins (10 μg per sample) were analyzed by LC-MS via a U3000 RSLC coupled to an Orbitrap Eclipse mass spectrometer (Thermo Scientific, Waltham, MA, USA). Proteins were eluted off a ES811A (Thermo Scientific, Waltham, MA, USA) 15-cm C4 column with a 5-50% gradient of MeCN in 1% FA. MS scans (range=600-2000 m/z) were obtained in the orbitrap at 120,000 resolution with 4 microscans. The Xtract function in Freestyle software (Thermo Scientific, Waltham, MA, USA) was used to deconvolute charge states averaged across the elution window. Fractional labeling of ARAF was measured by quantitating the unlabeled ARAF and ARAF shifted by the mass expected for formation of a covalent adduct of ARAF with the compound of interest.

[1] = molecular target: T1, ARAF/14-3-3 chimera (residues 274-606 of human ARAF fused to human 14-3-3 epsilon) (Homo sapiens, UniProt P10398+Q02750, D190N/G300S/Y301D/Y302D); assay: TR-FRET-based kinase assay: inhibition of phosphorylation of MEK1 by ARAF; type: biochemical; details: 250 nM MEK1(D190N), 75 nM ARAF/14-3-3 chimera, 30 minutes incubation with inhibitor, 200 μM ATP, 1 hour, HTRF
T1 construct: residues 274-606 of human ARAF, including the kinase domain and complete C-terminal region; made in house; host or cells: Sf9 insect cells (baculovirus)
T1 sequence (P10398 274-606 G300S/Y301D/Y302D limits assumed): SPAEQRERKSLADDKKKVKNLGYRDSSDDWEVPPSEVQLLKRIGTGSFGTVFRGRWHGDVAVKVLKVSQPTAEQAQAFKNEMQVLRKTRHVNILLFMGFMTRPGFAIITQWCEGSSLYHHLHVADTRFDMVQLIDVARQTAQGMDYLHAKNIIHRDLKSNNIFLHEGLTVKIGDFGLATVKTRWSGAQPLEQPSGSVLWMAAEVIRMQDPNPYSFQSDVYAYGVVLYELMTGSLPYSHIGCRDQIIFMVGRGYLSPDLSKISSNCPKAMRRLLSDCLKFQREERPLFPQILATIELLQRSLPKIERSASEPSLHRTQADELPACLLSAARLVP
T1 sequence (Q02750 whole entry D190N, the tested form may be a part): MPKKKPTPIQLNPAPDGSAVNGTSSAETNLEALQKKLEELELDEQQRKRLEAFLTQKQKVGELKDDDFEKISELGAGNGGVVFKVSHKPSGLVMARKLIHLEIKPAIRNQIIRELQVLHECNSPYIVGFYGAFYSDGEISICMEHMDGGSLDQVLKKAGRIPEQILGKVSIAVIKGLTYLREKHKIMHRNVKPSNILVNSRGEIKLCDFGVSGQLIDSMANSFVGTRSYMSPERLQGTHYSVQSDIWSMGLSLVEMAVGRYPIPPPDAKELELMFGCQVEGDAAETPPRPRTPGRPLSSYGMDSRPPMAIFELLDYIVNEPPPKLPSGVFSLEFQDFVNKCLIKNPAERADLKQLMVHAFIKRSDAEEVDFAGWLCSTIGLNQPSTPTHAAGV
Procedure: The ability of compounds of the invention to inhibit phosphorylation of MEK by ARAF was measured in a TR-FRET-based kinase assay using purified ARAF and MEK proteins. An active, chimeric ARAF protein was employed for this study. This ARAF protein included residues 274-606 of human ARAF, including the kinase domain and complete C-terminal region, fused to human 14-3-3 epsilon (ARAF/14-3-3 chimera). Amino acids corresponding to residues […] of human ARAF (with the sequence Ser-Gly-Tyr-Tyr) were mutated to Ser-Ser-Asp-Asp in this ARAF/14-3-3 chimera. […] In this assay, the ability of compounds of interest to inhibit phosphorylation of MEK1 by ARAF was measured by incubating 250 nM unphosphorylated full-length MEK1(D190N) with 75 nM ARAF/14-3-3 chimera and inhibitor of interest at a series of 12 concentrations (from 10 μM to 1.3 nM) for 30 minutes in reaction buffer (50 mM HEPES pH 7.0, 5 mM MgCl2, 1 mM MnCl2, 0.01% BSA, 2 mM TCEP, 0.1 mM NaVO4) at room temperature. Reactions were initiated by addition of 200 μM ATP and allowed to proceed for 1 hour. Reactions were quenched using detection buffer from HTRF-KinEASE kit (Cisbio). Signal was read with a PHERAstar plate reader (excitation=337 nm, emission=620 nm and 665 nm). IC50 values were determined using Graphpad Prism software from the 12 point concentration-response data using a three-parameter dose-response fit with the Hill slope constrained to −1.

| % labeling (covalent labeling of ARAF) (ARAF/MEK protein complex) [%] | IC50 [1] [nM] | Compound |
| --- | --- | --- |
| 0 | – | C=CC(=O)Nc1ccc(CNC(=O)c2cc3c(ncn3C)c(F)c2Nc2ccc(Br)cc2Cl)cc1 [Example 7, N-(4-Acrylamidobenzyl)-5-((4-bromo-2-chlorophenyl)amino)-4-fluoro-1-methyl-1H-benzo[d]imidazole-6-carboxamide] |
| 40 | – | Cn1cnc2c(F)c(Nc3ccc(Br)cc3Cl)c(C(=O)NCc3ccc(NC(=O)CCl)cc3)cc21 [Example 8, 5-((4-Bromo-2-chlorophenyl)amino)-N-(4-(2-chloroacetamido)benzyl)-4-fluoro-1-methyl-1H-benzo[d]imidazole-6-carboxamide] |
| 0 | – | C=CC(=O)Nc1ccc(Cn2cnc3c(F)c(Nc4ccc(Br)cc4Cl)c(C(=O)OC)cc32)cc1 [Example 9, Methyl 1-(4-acrylamidobenzyl)-5-((4-bromo-2-chlorophenyl)amino)-4-fluoro-1H-benzo[d]imidazole-6-carboxylate] |
| 75 | – | COC(=O)c1cc2c(ncn2Cc2ccc(NC(=O)CCl)cc2)c(F)c1Nc1ccc(Br)cc1Cl [Example 10, Methyl 5-((4-bromo-2-chlorophenyl)amino)-1-(4-(2-chloroacetamido)benzyl)-4-fluoro-1H-benzo[d]imidazole-6-carboxylate] |

The remaining lines, values behind:

| Compound | % labeling (covalent labeling of ARAF) (ARAF/MEK protein complex) [%] | IC50 [1] [nM] |
| --- | --- | --- |
| Cc1c(Cc2ccc(NC(=O)CCl)cc2F)c(=O)oc2cc(Oc3ncccn3)ccc12 [Example 2, 2-Chloro-N-(3-fluoro-4-((4-methyl-2-oxo-7-(pyrimidin-2-yloxy)-2H-chromen-3-yl)methyl)phenyl)acetamide] | 50 | – |
| C=CC(=O)Nc1cccc(Cc2c(C)c3ccc(Oc4ncccn4)cc3oc2=O)c1F [Example 3, N-(2-Fluoro-3-((4-methyl-2-oxo-7-(pyrimidin-2-yloxy)-2H-chromen-3-yl)methyl)phenyl)acrylamide] | 85 | 130 |
| Cc1c(Cc2cccc(NC(=O)CCl)c2F)c(=O)oc2cc(Oc3ncccn3)ccc12 [Example 4, 2-Chloro-N-(2-fluoro-3-((4-methyl-2-oxo-7-(pyrimidin-2-yloxy)-2H-chromen-3-yl)methyl)phenyl)acetamide] | 100 | 60 |
| C=CC(=O)Nc1ccc(CNC(=O)c2ccc(F)c(F)c2Nc2ccc(I)cc2F)cc1 [Example 5, N-(4-Acrylamidobenzyl)-3,4-difluoro-2-((2-fluoro-4-iodophenyl)amino)benzamide] | 10 | – |
| O=C(CCl)Nc1ccc(CNC(=O)c2ccc(F)c(F)c2Nc2ccc(I)cc2F)cc1 [Example 6, N-(4-(2-Chloroacetamido)benzyl)-3,4-difluoro-2-((2-fluoro-4-iodophenyl)amino)benzamide] | 40 | – |
| Cc1c(=O)n(C)c(Nc2ccc(I)cc2F)c2c(=O)n(C3CC3)c(=O)n(-c3cccc(NC(=O)CCl)c3)c12 [Example 11, 2-Chloro-N-(3-(3-cyclopropyl-5-((2-fluoro-4-iodophenyl)amino)-6,8-dimethyl-2,4,7-trioxo-3,4,6,7-tetrahydropyrido[4,3-d]pyrimidin-1(2H)-yl)phenyl)acetamide] | 100 | 490 |
| C=C(F)C(=O)Nc1cccc(-n2c(=O)n(C3CC3)c(=O)c3c(Nc4ccc(I)cc4F)n(C)c(=O)c(C)c32)c1 [Example 12, N-(3-(3-Cyclopropyl-5-((2-fluoro-4-iodophenyl)amino)-6,8-dimethyl-2,4,7-trioxo-3,4,6,7-tetrahydropyrido[4,3-d]pyrimidin-1(2H)-yl)phenyl)-2-fluoroacrylamide] | 100 | 210 |
